From patent US11787854B2, “Immunological targeting of pathological tau proteins” (New York University, priority 2009, dated 2023)

Tests used:
[1] = system: homozygous JNPL3 tau P301L mice; test: Rotarod test, actively immunized JNPL3 P301L mice; format: in vivo, mouse; settings: at 5-6 months of age and at 8-9 months of age, vs adjuvant alone
Description: (§1) JNPL3 P301L mice received a subcutaneous injection of 100 μl followed by a second injection 2 weeks later and then monthly thereafter (unless otherwise indicated). Vaccination started at 2-3 months of age and continued until the animals were 8-9 months of age at which time the animals were perfused and their organs collected for analysis. The mice went through a battery of sensorimotor tests at 5-6 months and again at 8-9 months of age prior to sacrifice. Control mice received the adjuvant alone.
Rotarod Test: Animals were placed onto the rod (diameter 3.6 cm) apparatus to assess differences in motor coordination and balance by measuring fore- and hindlimb motor coordination and balance (Rotarod 7650 accelerating model; Ugo Basile, Biological Research Apparatus, Varese, Italy). This procedure was designed to assess motor behavior without a practice confound. The animals were habituated to the apparatus by receiving training sessions of two trials, sufficient to reach a baseline level of performance. Then, the mice were tested three additional times, with increasing speed. During habituation, the rotarod was set at 1.0 rpm, which was gradually raised every 30 sec, and was also wiped clean with 30% ethanol solution after each session. A soft foam cushion was placed beneath the apparatus to prevent potential injury from falling. […]

[2] = system: JNPL3 P301L tangle mice; settings: mouse, in vivo
[3] = system: homozygous JNPL3 tau P301L mice; test: Traverse beam test, actively immunized JNPL3 P301L mice; format: in vivo, mouse; settings: at 8 months of age, vs adjuvant alone
Description: as §1
Traverse Beam: This task tests balance and general motor coordination and function integration. Mice were assessed by measuring their ability to traverse a graded narrow wooden beam to reach a goal box (Torres et al., “Behavioural, Histochemical and Biochemical Consequences of Selective Immunolesions in Discrete Regions of the Basal Forebrain Cholinergic System,” Neuroscience 63:95-122 (1994), which is hereby incorporated by reference in its entirety). The mice were placed on a 1.1 cm wide beam that is 50.8 cm long and suspended 30 cm above a padded surface by two identical columns. […] Mice were placed on the beam in a perpendicular orientation to habituate and were then monitored for a maximum of 60 sec. The number of foot slips each mouse had before falling or reaching the goal box were recorded for each of four successive trials. Errors are defined as footslips and were recorded numerically.

[4] = system: pathological tau; test: PHF1 immunostaining of pathological tau in brain of actively immunized JNPL3 P301L mice; format: in vivo, mouse; settings: compared to control mice receiving adjuvant only
Description: as §1, with “alone. […]” for “alone.”
Analysis of tissue sections was quantified with a Bioquant image analysis system. […] For quantitative image analysis of immunohistochemistry, the granular layer of the dentate gyrus was initially selected which consistently contained intraneuronal tau aggregates (pretangles and tangles). […] Four to five sections were analyzed per animal.

IGS*TE [Tau260-264[P-Ser262]]
functional impairment, rotarod test [1]: prevented functional impairment
antibody response against the immunogen [2]: robust IgG response against the immunogen
antibody response against the tau epitope [2]: a good portion of the antibody response is also generated against the tau epitope
functional impairment, traverse beam (footslips) [3]: prevented functional impairment
pathological tau (PHF1 immunostaining) in the brain stem [4]: reduced the levels of pathological tau
pathological tau (PHF1 immunostaining) in the dentate gyrus [4]: reduced the levels of pathological tau

RENAKAKTDHGAEIVYKXPVVSGDTXPRHL [Tau379-408[Asp396, 404]]
antibody response against the immunogen [2]: robust antibody (IgG) response

SRT*PS*LP [Tau210-216[P-Thr212-Ser214]]
antibody response against the immunogen [2]: robust IgG and IgM immune response

VRT*PPKS*PS [Tau229-237[P-Thr231-Ser235]]
antibody response against the immunogen [2]: robust antibody (IgG) response
